# From patent US20230149355A1, “COMPOSITIONS AND METHODS FOR MODULATING TRP CHANNEL ACTIVITY” (priority 2020, published 2023)
# Legend:
# [1] = tested on: intestinal motility; experiment: Zebrafish intestinal motility (PIV-Lab velocity analysis); assay type: in vivo
# Description: The zebrafish intestinal motility is quantified through recorded image series of zebrafish intestine using the method similar as previously described (Ganz et al., 2018). Intestinal p velocity and v velocity were used to estimate intestinal motility in zebrafish as previously described using the PIV-Lab MATLAB app (Ganz et al., 2018). A positive value of the μ velocity indicates an anterograde intestinal movement and a negative value of the μ velocity indicates a retrograde intestinal movement. The time-course p velocity number is plotted as heatmaps. When calculating the mean velocity, only the mean velocity magnitude was calculated, which therefore doesn't account for the movement direction. The MTrackJ FIJI plugin was used to quantify the mean velocity magnitude (Meijering et al., 2012).
# [2] = tested on: E. tarda; experiment: Intestinal E. tarda mCherry accumulation in zebrafish treated with AhR inhibitors; assay type: in vivo; conditions: AhR inhibitor 1 μM or folic acid 10 μM, 3 dpf to 6 dpf
# Procedure: For E. tarda colonization experiments, fertilized zebrafish eggs were collected, sorted and transferred into a cell culture flask containing 80 mL GZM at 0 dpf. At 3 dpf, dead embryos and 60 mL GZM were removed and replaced with 50 mL fresh GZM in each flask. To facilitate consistent commensal gut bacterial colonization, an additional 10 mL of filtered system water (5 μm filter, SLSV025LS, Millipore) were added to each flask. Overnight E. tarda mCherry culture was harvested, washed three times with GZM. 150 μL of GZM-washed E. tarda mCherry culture were inoculated into each flask. The E. tarda concentration is ˜10^6 CFU/ml. […] At 6 dpf, zebrafish larvae were subjected to fluorescence imaging analysis or CFU quantification. For fluorescence imaging analysis, zebrafish larvae were anesthetized with Tricaine ([…]), mounted in 3% methylcellulose and imaged with a Leica M205 FA upright fluorescence stereomicroscope equipped with a Leica DFC 365FX camera. For CFU quantification, digestive tracts were dissected and transferred into 1 mL sterile PBS which was then mechanically disassociated using a Tissue-Tearor (BioSpec Products, 985370). […] The mCherry+ colonies were quantified from each plate and E. tarda colony forming units (CFUs) per fish were calculated. […]
# [3] = tested on: AhR signaling; conditions: 2-hour 10 μM and 3-day 0.5 μM treatment; cited from earlier work
# [4] = tested on: zebrafish EECs (Trpa1); experiment: In vivo EEC calcium, Tg(neurod1:Gcamp6f) zebrafish
# Procedure: To record in vivo EEC activity using the Tg(neurod1:Gcamp6f) system, a published protocol with slight modification (Ye et al., 2019) was used. In brief, unanesthetized zebrafish larvae were gently mounted in 3% methylcellulose. Excess water was removed and zebrafish larvae were gently positioned with right side up. Zebrafish were then moved onto an upright Leica M205 FA fluorescence stereomicroscope equipped with a Leica DFC 365FX camera. The zebrafish larvae were allowed to recover for 2 mins before 100 μL of test agent was pipetted directly in front of the mouth region. Images were then recorded every 10 seconds. The data shown in FIG. 2O-R, depicting the EEC responses to E. tarda stimulation, were obtained by mounting unanesthetized zebrafish larvae in 1% low melting agarose. A window (5×5 mm) was cut to expose the head region of the zebrafish. 10 μL of E. tarda culture [˜10^9 Colony Forming Unit (CFU)] were delivered at the zebrafish mouth area. Images were recorded every 10 secs for 20 mins. Image processing and analysis were performed using FIJI software. Time-lapse fluorescence images were first aligned to correct for experimental drift using the plugin “align slices in stack.” Normalized correlation coefficient matching and bilinear interpolation methods for subpixel translation were used for aligning slices (Tseng et al., 2012). The plugin “rolling ball background subtraction” with the rolling ball radius=10 pixels was used to remove the large spatial variation of background intensities. The Gcamp6f fluorescence intensity in the intestinal region was then calculated for each time point. The ratio of maximum fluorescence (Fmax) and the initial fluorescence (F0) was used to measure EEC calcium responses.
# For EEC Trpa1 activation using the Optovin platform, zebrafish larvae were treated with 10 μM Optovin overnight. Following Optovin treatment, unanesthetized zebrafish were mounted in 1% LMA and imaged under a 780 upright Zeiss confocal microscope using 20× water objective lenses. For all the experiments, the mid-intestine region was imaged (FIG. 10D). The intestinal epithelium was selected as the region of interest (ROI) (FIG. 10A). Serial images were obtained at 1 s/frame. A 405 nm pulse of light was applied to the ROI at 1 pulse/10 s. For some experiments (FIG. 7D-F, FIG. 10B-G), the images were obtained at 10 s/frame. When measuring Optovin effects on intestinal motility in ret−/−, sox10−/− or tph1b−/− zebrafish larvae, embryos were collected from heterozygous zebrafish. ret−/− zebrafish were identified by lack of ENS and deflated swim bladder (Knight et al., 2011), sox10−/− zebrafish were identified by lack of pigment (Rolig et al., 2017), and tph1b−/− zebrafish were identified by PCR-based genotyping (Tornini et al., 2017).
# To determine whether Optovin-UV or ChR2 was sufficient to activate EECs, Tg(neurod1:Gcamp6f) zebrafish were used. […] The Gcamp6f signal was recorded with 488 nm laser intensity less than 0.5. The zebrafish intestinal motility is quantified through recorded image series of zebrafish intestine using the method similar as previously described (Ganz et al., 2018). […] When calculating the mean velocity, only the mean velocity magnitude was calculated, which therefore doesn't account for the movement direction. The MTrackJ FIJI plugin was used to quantify the mean velocity magnitude (Meijering et al., 2012).
# [5] = target: human TRPA1 (Homo sapiens, UniProt O75762); experiment: Ca2+ influx (Calcium 6 fluorescence) in human TRPA1 expressing HEK-293T cells; assay type: cell-based
# Sequence of human TRPA1 (O75762 whole entry): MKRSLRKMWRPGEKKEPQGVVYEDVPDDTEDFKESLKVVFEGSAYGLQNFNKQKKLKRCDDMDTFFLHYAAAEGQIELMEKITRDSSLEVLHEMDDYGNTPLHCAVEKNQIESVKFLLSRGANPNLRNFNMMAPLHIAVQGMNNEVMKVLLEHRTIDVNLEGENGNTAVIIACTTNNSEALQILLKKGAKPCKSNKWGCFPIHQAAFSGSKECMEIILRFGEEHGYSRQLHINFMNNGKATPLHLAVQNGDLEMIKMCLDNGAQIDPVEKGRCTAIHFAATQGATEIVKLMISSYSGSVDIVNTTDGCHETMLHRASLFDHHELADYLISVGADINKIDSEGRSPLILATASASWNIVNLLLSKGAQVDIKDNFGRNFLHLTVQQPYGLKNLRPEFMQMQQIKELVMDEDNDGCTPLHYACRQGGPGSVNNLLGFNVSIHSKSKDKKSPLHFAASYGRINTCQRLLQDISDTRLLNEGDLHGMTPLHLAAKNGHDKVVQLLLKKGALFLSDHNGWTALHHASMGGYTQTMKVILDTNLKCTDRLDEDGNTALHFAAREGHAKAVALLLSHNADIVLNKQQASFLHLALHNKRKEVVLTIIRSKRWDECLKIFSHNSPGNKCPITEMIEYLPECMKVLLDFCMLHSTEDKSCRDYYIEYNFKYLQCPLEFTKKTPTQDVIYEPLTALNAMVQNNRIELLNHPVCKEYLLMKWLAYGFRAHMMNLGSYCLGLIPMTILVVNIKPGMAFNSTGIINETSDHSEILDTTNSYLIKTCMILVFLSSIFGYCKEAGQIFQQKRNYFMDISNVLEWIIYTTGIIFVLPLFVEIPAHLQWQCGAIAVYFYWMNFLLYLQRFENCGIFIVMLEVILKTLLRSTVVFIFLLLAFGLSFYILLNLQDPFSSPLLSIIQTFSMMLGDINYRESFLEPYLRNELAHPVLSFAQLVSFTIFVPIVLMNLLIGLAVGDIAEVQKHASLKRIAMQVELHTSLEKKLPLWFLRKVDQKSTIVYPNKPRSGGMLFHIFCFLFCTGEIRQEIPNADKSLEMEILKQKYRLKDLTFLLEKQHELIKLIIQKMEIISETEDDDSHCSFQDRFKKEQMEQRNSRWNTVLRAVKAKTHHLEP
# Procedure: (§1) HEK-293T cells were cultured in DMEM (Thermofisher Scientific, Waltham, Mass.) and supplemented with 10% fetal bovine serum (FBS) (Thermofisher Scientific), penicillin (100 units/mL) and streptomycin (0.1 mg/mL). Cells were plated on 100 mm tissue culture plates coated with poly-D-lysine (Sigma Aldrich, Saint Louis, Mo.) and grown to ˜60% confluence. The cells were transiently transfected for 16-24 hours with either human or mouse orthologs of TRPA1 using Fugene 6 transfection reagents and Opti-MEM (Thermofisher Scientific) according to the manufacturer's protocol. Subsequently, cells were trypsinized, re-suspended and re-plated onto poly-D-lysine coated 96-well plates (Krystal black walled plates, Genesee Scientific) at 5×10^5 cells/mL (100 μL/well) and allowed to grow for another 16-20 hrs prior to the experiments. Cells were maintained as monolayers in a 5% CO2 incubator at 37° C.
# (§2) Measurements of changes in intracellular Ca^2+ concentrations ([Ca^2+]i) were performed as described previously (Caceres et al., 2017). In brief, cells in 96-well plates were loaded with Calcium 6, a no-wash fluorescent indicator, for 1.5 hrs (Molecular Devices, San Jose, Calif.) and then transferred to a FlexStation III benchtop scanning fluorometer chamber (Molecular Devices). Fluorescence measurements in the FlexStation were performed at 37° C. (Ex:485 nm, Em: 525 nm at every 1.8 s). After recording baseline fluorescence, agonists (indole, IAld, cinnamaldehyde) were added and fluorescence was monitored for a total of 60 s. […] The change in fluorescence was measured as Fmax-F0, where Fmax is the maximum fluorescence and F0 is the baseline fluorescence measured in each well.
# [6] = target: T1, mouse TRPA1 (Mus musculus, UniProt Q8BLA8); experiment: Ca2+ influx (Calcium 6 fluorescence) in mouse Trpa1-expressing HEK-293T cells; assay type: cell-based
# T1 construct: expressed in transfected cells; host or cells: HEK-293T
# T1 sequence (Q8BLA8 whole entry): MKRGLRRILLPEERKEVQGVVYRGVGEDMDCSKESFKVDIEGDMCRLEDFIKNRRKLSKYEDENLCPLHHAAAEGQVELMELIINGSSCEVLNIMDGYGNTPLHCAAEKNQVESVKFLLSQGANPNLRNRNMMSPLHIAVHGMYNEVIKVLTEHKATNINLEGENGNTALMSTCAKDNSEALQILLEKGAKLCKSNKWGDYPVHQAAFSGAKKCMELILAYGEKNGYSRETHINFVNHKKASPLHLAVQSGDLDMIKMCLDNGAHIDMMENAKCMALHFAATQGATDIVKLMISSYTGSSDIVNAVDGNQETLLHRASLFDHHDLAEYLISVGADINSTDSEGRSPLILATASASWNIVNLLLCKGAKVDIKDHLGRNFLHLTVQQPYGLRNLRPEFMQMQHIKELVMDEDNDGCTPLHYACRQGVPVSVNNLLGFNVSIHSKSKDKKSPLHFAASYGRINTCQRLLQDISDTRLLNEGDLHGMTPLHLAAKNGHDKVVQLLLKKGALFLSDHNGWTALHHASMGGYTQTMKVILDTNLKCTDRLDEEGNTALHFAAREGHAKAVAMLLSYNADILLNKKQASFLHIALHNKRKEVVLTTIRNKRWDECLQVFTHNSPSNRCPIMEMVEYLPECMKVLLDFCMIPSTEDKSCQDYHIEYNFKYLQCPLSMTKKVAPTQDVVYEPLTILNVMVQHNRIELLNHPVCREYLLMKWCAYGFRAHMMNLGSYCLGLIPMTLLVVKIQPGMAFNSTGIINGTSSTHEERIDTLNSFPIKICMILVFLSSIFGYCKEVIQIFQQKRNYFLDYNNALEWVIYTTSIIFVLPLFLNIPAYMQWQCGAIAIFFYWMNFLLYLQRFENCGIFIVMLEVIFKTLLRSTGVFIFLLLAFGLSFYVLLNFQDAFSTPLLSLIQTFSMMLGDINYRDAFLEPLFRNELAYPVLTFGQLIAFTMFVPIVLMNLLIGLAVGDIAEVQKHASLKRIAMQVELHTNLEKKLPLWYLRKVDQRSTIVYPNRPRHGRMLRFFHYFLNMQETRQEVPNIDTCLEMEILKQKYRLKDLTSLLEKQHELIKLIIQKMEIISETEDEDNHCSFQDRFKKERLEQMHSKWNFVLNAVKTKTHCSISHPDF
# Procedure: as §1, §2
# [7] = tested on: vagal sensory neurons; experiment: In vivo calcium imaging of vagal sensory ganglia after microgavage; parameters: species or system zebrafish; conditions: WT; enteric microgavage ~8 nl, AITC 100 mM, indole 1 mM, IAld 1 mM
# Procedure: For delivering bacterial or chemicals specifically to the intestine, the established microgavage technique (Cocchiaro and Rawls, 2013) was adopted. Zebrafish were anesthetized with 1 mg/mL α-Bungarotoxin (α-BTX) and the gavage procedure was performed as previously described using microinjection station (Cocchiaro and Rawls, 2013). For bacteria gavage experiments, 1 ml of overnight bacterial culture was harvested, pelleted, washed with PBS and resuspended in 100 ul PBS.˜8 nl was then delivered into the zebrafish intestine using microgavage. The gavaged zebrafish was then transferred into egg water and mounted in 1% LMA for imaging. For chemical gavage experiments, ˜8 nl of AITC (100 mM), indole (1 mM) and IAld (1 mM) was gavaged into the intestine.
# Tg(neurod1:Gcamp6f); Tg(neurod1:TagRFP) zebrafish were used to record vagal sensory ganglia calcium activity in vivo. Zebrafish were anesthetized with 1 mg/mL α-Bungarotoxin (α-BTX) and gavaged with chemical compounds or bacteria as described (Naumann et al., 2016). Zebrafish larvae were mounted in 1% LMA and imaged under a Zeiss 780 upright confocal microscope. Z-stack images of the entire vagal ganglia were collected as serial images at 10 mins/frame and processed in FIJI. Individual vagal sensory neurons were identified and the Gcamp6f to TagRFP fluorescence ratios of individual vagal sensory neurons were calculated.
smiles,measurement,setting,value
Cc1ccccc1N=Nc1ccc(NC(=O)c2ccnn2C)c(C)c1 [CH223191],Effect on Optovin-UV induced intestinal motility change,[1]; AhR inhibitor 10 μM or folic acid 10 μM for 2 hours,insufficient to block
same,Effect on E. tarda intestinal accumulation,[2],insufficient to block
same,Inhibition of larvae zebrafish AhR signaling,[3],sufficient to inhibit
Cc1cc(/C=C2/SC(=S)NC2=O)c(C)n1-c1cccnc1 [Optovin],EEC [Ca2+]i (Gcamp6f fluorescence) after UV light activation,"[4]; WT larvae pretreated with Optovin 10 μM overnight, 405 nm",significantly increased
same,EEC [Ca2+]i after UV light exposure,[4]; trpa1b−/− larvae pretreated with Optovin,did not increase
same,Intestinal motility after Optovin treatment and UV activation,[1]; EEC-ablated zebrafish,failed to induce intestinal motility
same,Velocity of intestinal motility after Optovin-UV Trpa1 activation,"[1]; WT larvae, middle intestine",increased
CCC(=N\O)/C(C)=C/c1ccc(F)cc1 [A967079],Effect on indole- and IAld-induced human Trpa1 activation,[5]; human,blocked
same,Effect on indole- and IAld-induced mouse Trpa1 activation,[6]; mouse,blocked
same,IC50,"[6]; mouse Trpa1-expressing HEK-293T cells, normalized to 100 μM Indole",0.315 µM
"O=Cc1c[nH]c2ccccc12 [IAld, indole-3-carboxaldehyde]",Activation of human TRPA1 receptor transfected into HEK cells,[5],activated
same,TRPA1 agonist efficacy,[5]; efficiency comparable to cinnamaldehyde (CAD),full TRPA1 agonist activity
same,EC50,"[5]; human TRPA1 expressing HEK-293T cells, normalized to 1 mM cinnamaldehyde (CAD), read-out: EC50, integrated Calcium 6 fluorescence response above baseline (Fmax-F0; maximal change in Ca2+ influx)",77.7 µM
same,Activation of mouse Trpa1,[6]; compared with human TRPA1,"activated mouse Trpa1, but in a less potent manner"
same,EC50,"[6]; mouse TRPA1, normalized to 1 mM cinnamaldehyde (CAD), read-out: EC50, dose-response effects on mouse TRPA1",189 µM
same,Zebrafish EEC activation (Gcamp6f fluorescence),[4]; trpa1b-dependent,strongly activated
same,Gcamp6f fluorescence in a subset of vagal sensory neurons,[7],increased
